According to US9968553B1, “Enalapril compositions” (Silvergate Pharmaceuticals, Inc., priority 2012, dated 2018):

Assay: Reconstitution studies in 150 mL Ora-Sweet SF syrup (visual inspection)
Assay type: physicochemical
Settings: 150 mL Ora-Sweet SF sugar-free flavored syrup
Procedure: The scaled-up enalapril and mannitol powder compositions (Enalapril Powder Composition A and the like) were examined in reconstitution studies where 150 mL Ora-Sweet® SF sugar-free flavored syrup was to the powder compositions.
Reconstitution of Neat Enalapril Powder in Bottle: Due to the ‘clouding’ in the reconstitution as well as the uniformity issues in the scale-up studies of Enalapril Powder Composition A, neat enalapril, i.e., drug alone, without any excipients, was examined for scale-up bottle filling and subsequent reconstitution.

## CCOC(=O)[C@H](CCc1ccccc1)N[C@@H](C)C(=O)N1CCC[C@H]1C(=O)O [neat enalapril, enalapril]
  Reconstitution, visual observation of dissolution: did not dissolve
